One data set addresses Nav 1.5 (Homo sapiens (Human), UniProt Q14524). The data set is described as follows: Nav 1.5 in vitro PX assay (PatchXpress whole cell voltage clamp). The class given is cell-based. The essentials:
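HEK293 cells stably expressing Nav 1.5, whole-cell voltage clamp held at −50 mV; 20 msec test pulses to 0 mV at 0.1 Hz, each preceded by a step to −120 mV.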

Another data set addresses Nav 1.7 (Homo sapiens (Human), UniProt Q15858). Kind of data set: Nav 1.7 in vitro PX assay (PatchXpress whole cell voltage clamp). The class given is cell-based. As to conditions: 293 cells, human Nav1.7, partially inactivated state; read-out: Nav1.7 PX IC50 IP. The essentials: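 HEK293 cells stably expressing human Nav1.7, whole-cell voltage clamp on PatchXpress, held at potential giving 20–50% inactivation; current elicited by 20 msec pulse to −10 mV.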

Setting [1] is: 293 cells stably transfected with Nav 1.5, second part of table, read-out: Nav1.5 PX IC50.

Read-outs that look alike come from different tables or passages of the source.

Chain of Nav 1.7 (Q15858 whole entry): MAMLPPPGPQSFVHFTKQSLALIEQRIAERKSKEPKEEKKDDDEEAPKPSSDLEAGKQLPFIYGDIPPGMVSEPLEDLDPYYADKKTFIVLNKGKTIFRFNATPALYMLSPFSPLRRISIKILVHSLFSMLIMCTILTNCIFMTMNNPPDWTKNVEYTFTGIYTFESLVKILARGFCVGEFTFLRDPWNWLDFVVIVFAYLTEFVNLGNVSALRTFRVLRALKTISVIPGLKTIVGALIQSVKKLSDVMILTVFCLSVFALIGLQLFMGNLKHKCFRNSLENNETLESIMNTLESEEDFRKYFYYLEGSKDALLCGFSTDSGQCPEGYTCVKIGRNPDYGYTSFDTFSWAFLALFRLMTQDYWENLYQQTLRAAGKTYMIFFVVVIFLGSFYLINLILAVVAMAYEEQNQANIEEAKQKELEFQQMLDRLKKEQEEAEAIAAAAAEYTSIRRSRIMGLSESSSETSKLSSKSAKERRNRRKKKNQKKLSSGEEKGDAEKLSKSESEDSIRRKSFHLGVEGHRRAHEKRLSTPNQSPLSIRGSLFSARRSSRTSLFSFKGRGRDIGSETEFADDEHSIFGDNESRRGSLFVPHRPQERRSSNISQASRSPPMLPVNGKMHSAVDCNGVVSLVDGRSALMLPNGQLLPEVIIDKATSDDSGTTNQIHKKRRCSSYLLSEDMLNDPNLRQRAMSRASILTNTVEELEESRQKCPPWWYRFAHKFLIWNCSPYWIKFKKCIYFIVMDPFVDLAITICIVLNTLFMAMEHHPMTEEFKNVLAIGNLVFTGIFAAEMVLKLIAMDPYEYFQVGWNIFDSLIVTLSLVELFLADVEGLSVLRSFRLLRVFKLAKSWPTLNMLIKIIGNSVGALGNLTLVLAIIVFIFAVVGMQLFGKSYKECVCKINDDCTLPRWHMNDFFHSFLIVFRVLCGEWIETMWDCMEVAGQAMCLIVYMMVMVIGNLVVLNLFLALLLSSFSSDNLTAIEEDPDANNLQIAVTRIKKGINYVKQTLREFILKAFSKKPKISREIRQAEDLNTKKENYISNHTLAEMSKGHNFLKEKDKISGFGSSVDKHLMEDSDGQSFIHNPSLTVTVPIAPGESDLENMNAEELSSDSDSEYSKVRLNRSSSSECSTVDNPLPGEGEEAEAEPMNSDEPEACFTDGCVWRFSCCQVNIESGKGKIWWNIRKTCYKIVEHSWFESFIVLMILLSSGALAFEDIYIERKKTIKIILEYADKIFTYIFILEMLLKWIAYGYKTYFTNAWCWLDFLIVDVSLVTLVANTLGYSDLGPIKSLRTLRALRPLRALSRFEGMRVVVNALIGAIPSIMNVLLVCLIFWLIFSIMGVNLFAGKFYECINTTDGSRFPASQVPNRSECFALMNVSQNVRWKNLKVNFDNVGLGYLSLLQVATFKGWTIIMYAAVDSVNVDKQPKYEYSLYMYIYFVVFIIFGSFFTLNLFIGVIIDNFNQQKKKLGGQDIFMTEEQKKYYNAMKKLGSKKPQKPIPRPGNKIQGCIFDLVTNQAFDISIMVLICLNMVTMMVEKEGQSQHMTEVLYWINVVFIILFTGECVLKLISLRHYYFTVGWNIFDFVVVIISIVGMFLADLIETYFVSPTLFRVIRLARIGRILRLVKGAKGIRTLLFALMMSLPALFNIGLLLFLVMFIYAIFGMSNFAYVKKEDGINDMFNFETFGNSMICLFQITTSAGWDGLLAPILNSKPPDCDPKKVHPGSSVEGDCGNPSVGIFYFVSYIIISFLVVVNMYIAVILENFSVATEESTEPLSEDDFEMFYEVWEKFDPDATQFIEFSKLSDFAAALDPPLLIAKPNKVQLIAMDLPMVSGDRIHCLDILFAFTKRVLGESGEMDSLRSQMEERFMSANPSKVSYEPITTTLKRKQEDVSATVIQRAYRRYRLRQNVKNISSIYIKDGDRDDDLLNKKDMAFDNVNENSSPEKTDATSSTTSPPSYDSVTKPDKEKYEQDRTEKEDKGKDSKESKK
Chain of Nav 1.5 (Q14524 whole entry): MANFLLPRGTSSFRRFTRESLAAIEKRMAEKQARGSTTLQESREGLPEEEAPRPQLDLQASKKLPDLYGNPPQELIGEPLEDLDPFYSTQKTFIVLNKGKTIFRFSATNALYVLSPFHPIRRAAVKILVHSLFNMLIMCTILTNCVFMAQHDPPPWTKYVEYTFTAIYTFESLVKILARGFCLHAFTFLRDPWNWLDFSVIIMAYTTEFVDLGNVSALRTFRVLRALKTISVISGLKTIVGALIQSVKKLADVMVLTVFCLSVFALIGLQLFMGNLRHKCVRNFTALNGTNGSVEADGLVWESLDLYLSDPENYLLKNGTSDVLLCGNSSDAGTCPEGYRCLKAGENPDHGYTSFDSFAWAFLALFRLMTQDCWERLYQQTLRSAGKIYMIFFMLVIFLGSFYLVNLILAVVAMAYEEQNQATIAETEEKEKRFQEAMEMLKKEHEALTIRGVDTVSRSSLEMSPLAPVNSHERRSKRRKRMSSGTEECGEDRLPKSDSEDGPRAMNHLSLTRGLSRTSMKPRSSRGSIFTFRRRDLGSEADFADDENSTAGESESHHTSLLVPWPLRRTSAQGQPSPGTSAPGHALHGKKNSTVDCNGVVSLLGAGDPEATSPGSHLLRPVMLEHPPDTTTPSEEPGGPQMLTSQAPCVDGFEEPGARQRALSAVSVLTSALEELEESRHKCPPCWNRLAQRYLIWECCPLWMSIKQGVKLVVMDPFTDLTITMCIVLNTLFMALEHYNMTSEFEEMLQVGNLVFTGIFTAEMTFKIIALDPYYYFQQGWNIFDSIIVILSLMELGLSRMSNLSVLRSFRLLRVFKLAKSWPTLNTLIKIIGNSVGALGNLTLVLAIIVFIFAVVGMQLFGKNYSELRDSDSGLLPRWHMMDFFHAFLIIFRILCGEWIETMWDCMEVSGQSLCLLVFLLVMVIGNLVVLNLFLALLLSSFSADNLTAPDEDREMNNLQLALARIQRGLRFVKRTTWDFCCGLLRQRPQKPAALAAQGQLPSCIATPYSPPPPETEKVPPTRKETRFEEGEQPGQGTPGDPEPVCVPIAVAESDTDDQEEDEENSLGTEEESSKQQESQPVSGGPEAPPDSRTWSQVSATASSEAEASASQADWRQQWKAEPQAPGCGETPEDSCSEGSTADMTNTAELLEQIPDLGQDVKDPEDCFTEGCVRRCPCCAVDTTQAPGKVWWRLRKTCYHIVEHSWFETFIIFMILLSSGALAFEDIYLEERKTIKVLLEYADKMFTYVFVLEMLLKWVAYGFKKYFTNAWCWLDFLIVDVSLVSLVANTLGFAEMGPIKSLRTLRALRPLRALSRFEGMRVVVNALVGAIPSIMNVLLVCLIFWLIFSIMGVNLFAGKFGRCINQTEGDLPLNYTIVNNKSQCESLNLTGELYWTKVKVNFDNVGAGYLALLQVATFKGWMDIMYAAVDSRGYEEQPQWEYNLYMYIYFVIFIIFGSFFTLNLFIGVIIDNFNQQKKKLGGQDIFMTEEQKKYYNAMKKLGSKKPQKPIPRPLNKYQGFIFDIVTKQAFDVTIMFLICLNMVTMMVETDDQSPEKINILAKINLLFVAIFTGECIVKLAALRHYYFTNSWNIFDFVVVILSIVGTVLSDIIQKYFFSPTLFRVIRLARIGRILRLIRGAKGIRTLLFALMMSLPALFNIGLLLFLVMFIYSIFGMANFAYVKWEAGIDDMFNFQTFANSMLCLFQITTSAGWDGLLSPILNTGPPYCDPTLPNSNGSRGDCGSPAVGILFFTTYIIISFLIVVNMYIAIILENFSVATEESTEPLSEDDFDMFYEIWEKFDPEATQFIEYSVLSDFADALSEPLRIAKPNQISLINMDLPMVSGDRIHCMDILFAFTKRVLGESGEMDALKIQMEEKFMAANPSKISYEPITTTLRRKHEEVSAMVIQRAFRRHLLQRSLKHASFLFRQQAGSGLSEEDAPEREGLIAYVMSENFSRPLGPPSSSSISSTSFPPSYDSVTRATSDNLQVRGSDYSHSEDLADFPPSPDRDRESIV

For the molecule `COc1cc(Cl)ccc1-c1ccc(-c2nccc3cc(S(=O)(=O)Nc4ccncn4)ccc23)c(OC)c1` [Example 460, 1-(4′-CHLORO-2′,3-DIMETHOXY-[1,1′-BIPHENYL]-4-YL)-N-(PYRIMIDIN-4-YL)ISOQUINOLINE-6-SULFONAMIDE], the 50% inhibitory concentration (IC50) on Nav 1.5 (setting [1]) was greater than 30000 nM; at Nav 1.7, 106 nM.

On to `COc1cc(-c2ccc(F)c(F)c2)ccc1-c1nccc2cc(S(=O)(=O)Nc3ccncn3)ccc12` [Example 448, 1-(3′,4′-DIFLUORO-3-METHOXY-[1,1′-BIPHENYL]-4-YL)-N-(PYRIMIDIN-4-YL)ISOQUINOLINE-6-SULFONAMIDE], for which the figures for the IC50 at Nav 1.5 (setting [1]) and on Nav 1.7 were greater than 30000 nM and 38 nM, respectively.

For the molecule `COc1cc(-c2cccc(F)c2)ccc1-c1nccc2cc(S(=O)(=O)Nc3nncs3)ccc12` [Example 354, 1-(3′-FLUORO-3-METHOXY-[1,1′-BIPHENYL]-4-YL)-N-(1,3,4-THIADIAZOL-2-YL)ISOQUINOLINE-6-SULFONAMIDE 2,2,2-TRIFLUOROACETATE], the IC50 on Nav 1.5 (setting [1]) is greater than 30000 nM; at Nav 1.7, 110 nM.

Take `COc1cc(F)cc(-c2ccc(-c3nccc4cc(S(=O)(=O)Nc5ccncn5)ccc34)c(OC)c2)c1` [Example 485, 1-(3′-FLUORO-3,5′-DIMETHOXY-[1,1′-BIPHENYL]-4-YL)-N-(PYRIMIDIN-4-YL)ISOQUINOLINE-6-SULFONAMIDE]: the half-maximal inhibitory concentration (IC50) on Nav 1.5 (setting [1]) was greater than 30000 nM; on Nav 1.7 it was 128 nM.

Consider `COc1ccc(-c2cccc(C(F)(F)F)c2)cc1-c1nccc2cc(S(=O)(=O)Nc3ccncn3)ccc12` [Example 349, 1-(4-METHOXY-3′-(TRIFLUOROMETHYL)-[1,1′-BIPHENYL]-3-YL)-N-(PYRIMIDIN-4-YL)ISOQUINOLINE-6-SULFONAMIDE], for which the concentration for half-maximal inhibition (IC50) on Nav 1.5 (setting [1]) was greater than 30000 nM; at Nav 1.7 it was 38 nM.

As for `COc1cc(-c2ccc(F)cc2F)ccc1-c1nccc2cc(S(=O)(=O)Nc3ccncn3)ccc12` [Example 445, 1-(2′,4′-DIFLUORO-3-METHOXY-[1,1′-BIPHENYL]-4-YL)-N-(PYRIMIDIN-4-YL)ISOQUINOLINE-6-SULFONAMIDE], the IC50 is greater than 30000 nM at Nav 1.5 (setting [1]) and 218 nM on Nav 1.7.

Take `COc1ccc(-c2cccc(F)c2)cc1-c1nccc2cc(S(=O)(=O)Nc3ncns3)ccc12` [Example 347, 1-(3′-FLUORO-4-METHOXY-[1,1′-BIPHENYL]-3-YL)-N-(1,2,4-THIADIAZOL-5-YL)ISOQUINOLINE-6-SULFONAMIDE]: the values for the IC50 at Nav 1.5 (setting [1]) and at Nav 1.7 were greater than 30000 nM and 40 nM, respectively.

Regarding `COc1ccccc1-c1ccnc2cc(S(=O)(=O)Nc3ncns3)ccc12` [Example 320, 4-(2-METHOXYPHENYL)-N-(1,2,4-THIADIAZOL-5-YL)QUINOLINE-7-SULFONAMIDE 2,2,2-TRIFLUOROACETATE], the IC50 is greater than 30000 nM on Nav 1.5 (setting [1]) and 155 nM on Nav 1.7.

For the molecule `COc1cc(-c2ccc(C)cc2)ccc1-c1nccc2cc(S(=O)(=O)Nc3ccncn3)ccc12` [Example 443, 1-(3-METHOXY-4′-METHYL-[1,1′-BIPHENYL]-4-YL)-N-(PYRIMIDIN-4-YL)ISOQUINOLINE-6-SULFONAMIDE], the IC50 on Nav 1.5 (setting [1]) was greater than 30000 nM; at Nav 1.7 it was 280 nM.

As to `COc1cc(-c2cc(F)cc(F)c2)ccc1-c1nccc2cc(S(=O)(=O)Nc3ccncn3)ccc12` [Example 449, 1-(3′,5′-DIFLUORO-3-METHOXY-[1,1′-BIPHENYL]-4-YL)-N-(PYRIMIDIN-4-YL)ISOQUINOLINE-6-SULFONAMIDE], the IC50 was greater than 30000 nM on Nav 1.5 (setting [1]) and 34 nM on Nav 1.7.

Take `COc1cccc(-c2ccc(-c3nccc4cc(S(=O)(=O)Nc5ccncn5)ccc34)c(OC)c2)c1` [Example 467, 1-(3,3′-DIMETHOXY-[1,1′-BIPHENYL]-4-YL)-N-(PYRIMIDIN-4-YL)ISOQUINOLINE-6-SULFONAMIDE]: the IC50 on Nav 1.5 (setting [1]) was greater than 30000 nM; at Nav 1.7 it was 204 nM.

For `COc1cc(-c2cccc(C)c2)ccc1-c1nccc2cc(S(=O)(=O)Nc3ccncn3)ccc12` [Example 442, 1-(3-METHOXY-3′-METHYL-[1,1′-BIPHENYL]-4-YL)-N-(PYRIMIDIN-4-YL)ISOQUINOLINE-6-SULFONAMIDE], the IC50 at Nav 1.5 (setting [1]) was greater than 30000 nM; on Nav 1.7 it was 87 nM.

`COc1cc(-c2ccc(F)cc2)ccc1-c1nccc2cc(S(=O)(=O)Nc3ccncn3)ccc12` [Example 350, 1-(4′-FLUORO-3-METHOXY-[1,1′-BIPHENYL]-4-YL)-N-(PYRIMIDIN-4-YL)ISOQUINOLINE-6-SULFONAMIDE]: the figures for the IC50 on Nav 1.5 (setting [1]) and on Nav 1.7 were greater than 30000 nM and 161 nM, respectively.

Regarding `COc1cc(-c2ccc(C)c(C)c2)ccc1-c1nccc2cc(S(=O)(=O)Nc3ccncn3)ccc12` [Example 469], the concentration for half-maximal inhibition (IC50) at Nav 1.5 (setting [1]) is greater than 30000 nM; on Nav 1.7 it was 170 nM.

For `COc1cc(-c2cccc(F)c2)c(Cl)cc1-c1nccc2cc(S(=O)(=O)Nc3ccncn3)ccc12` [Example 333, 1-(2-CHLORO-3′-FLUORO-5-METHOXY-[1,1′-BIPHENYL]-4-YL)-N-(PYRIMIDIN-4-YL)ISOQUINOLINE-6-SULFONAMIDE], the IC50 came to 20300 nM on Nav 1.5 (setting [1]) and 75 nM on Nav 1.7.

For `Cc1cc(Cl)ccc1-c1ccnc2cc(S(=O)(=O)Nc3ncns3)ccc12` [Example 322], the 50% inhibitory concentration (IC50) is greater than 30000 nM at Nav 1.5 (setting [1]) and 333 nM on Nav 1.7.

`COc1ccc(Cl)cc1-c1n[nH]c(=O)c2cc(S(=O)(=O)Nc3nccs3)ccc12` [Example 501, 1-(5-CHLORO-2-METHOXYPHENYL)-4-OXO-N-(THIAZOL-2-YL)-3,4-DIHYDROPHTHALAZINE-6-SULFONAMIDE]: the figures for the half-inhibitory concentration (IC50) at Nav 1.5 and on Nav 1.7 were greater than 30000 nM and 124 nM, respectively.

`COc1cc(-c2ccc(Cl)c(C)c2)ccc1-c1nccc2cc(S(=O)(=O)Nc3ccncn3)ccc12` [Example 493, 1-(4′-CHLORO-3-METHOXY-3′-METHYL-[1,1′-BIPHENYL]-4-YL)-N-(PYRIMIDIN-4-YL)ISOQUINOLINE-6-SULFONAMIDE]: the half-maximal inhibitory concentration (IC50) at Nav 1.5 (setting [1]) was greater than 30000 nM; on Nav 1.7 it was 86 nM.

On to `COc1cc(OCC(C)C)ccc1-c1nccc2cc(S(=O)(=O)Nc3ccncn3)ccc12` [Example 361, 1-(4-ISOBUTOXY-2-METHOXYPHENYL)-N-(PYRIMIDIN-4-YL)ISOQUINOLINE-6-SULFONAMIDE], for which the IC50 is greater than 30000 nM on Nav 1.5 (setting [1]) and 463 nM on Nav 1.7.

For `COc1cc(C(F)(F)F)ccc1-c1nccc2cc(S(=O)(=O)Nc3cscn3)ccc12` [Example 497, 1-(2-METHOXY-4-(TRIFLUOROMETHYL)PHENYL)-N-(THIAZOL-4-YL)ISOQUINOLINE-6-SULFONAMIDE], the concentration for half-maximal inhibition (IC50) at Nav 1.5 (setting [1]) was greater than 30000 nM; on Nav 1.7, 786 nM.

As for `COc1cc(-c2ccc(Cl)c(F)c2)ccc1-c1nccc2cc(S(=O)(=O)Nc3ccncn3)ccc12` [Example 492, 1-(4′-CHLORO-3′-FLUORO-3-METHOXY-[1,1′-BIPHENYL]-4-YL)-N-(PYRIMIDIN-4-YL)ISOQUINOLINE-6-SULFONAMIDE], the IC50 is greater than 30000 nM at Nav 1.5 (setting [1]) and 69 nM at Nav 1.7.

Consider `COc1cc(-c2cc(C)cc(C)c2)ccc1-c1nccc2cc(S(=O)(=O)Nc3ccncn3)ccc12` [Example 470], for which the IC50 at Nav 1.5 (setting [1]) is greater than 30000 nM; at Nav 1.7, 180 nM.

Take `COc1cc(-c2cccc(C(F)(F)F)c2)c(C#N)cc1-c1nccc2cc(S(=O)(=O)Nc3nncs3)ccc12` [Example 339, 1-(2-CYANO-5-METHOXY-3′-(TRIFLUOROMETHYL)-[1,1′-BIPHENYL]-4-YL)-N-(1,3,4-THIADIAZOL-2-YL)ISOQUINOLINE-6-SULFONAMIDE]: the values for the 50% inhibitory concentration (IC50) at Nav 1.5 (setting [1]) and at Nav 1.7 were greater than 30000 nM and 31 nM, respectively.

As to `COc1ccccc1-c1cncc2cc(S(=O)(=O)Nc3nccs3)ccc12` [Example 289, 4-(2-methoxyphenyl)-N-(thiazol-2-yl)isoquinoline-7-sulfonamide], the 50% inhibitory concentration (IC50) was greater than 30000 nM on Nav 1.5 (setting [1]) and 340 nM at Nav 1.7.

`COc1cc(C(F)F)c(F)cc1-c1ncnc2cc(S(=O)(=O)Nc3nccs3)ccc12` [Example 512, 4-(4-(DIFLUOROMETHYL)-5-FLUORO-2-METHOXYPHENYL)-N-(THIAZOL-2-YL)QUINAZOLINE-7-SULFONAMIDE]: the IC50 is greater than 30000 nM at Nav 1.5 (setting [1]) and 234 nM at Nav 1.7.

Turning to `COc1cc(C(F)F)ccc1-c1nc(C)nc2cc(S(=O)(=O)Nc3nccs3)ccc12` [Example 515, 4-(4-(difluoromethyl)-2-methoxyphenyl)-2-methyl-N-(thiazol-2-yl)quinazoline-7-sulfonamide], the half-maximal inhibitory concentration (IC50) at Nav 1.5 (setting [1]) is greater than 30000 nM; at Nav 1.7, 478 nM.

`COc1cc(-c2ccc(-c3nccc4cc(S(=O)(=O)Nc5ccncn5)ccc34)c(OC)c2)ccc1F` [Example 484, 1-(4′-FLUORO-3,3′-DIMETHOXY-[1,1′-BIPHENYL]-4-YL)-N-(PYRIMIDIN-4-YL)ISOQUINOLINE-6-SULFONAMIDE]: the IC50 was greater than 30000 nM on Nav 1.5 (setting [1]) and 177 nM at Nav 1.7.

Turning to `COc1nc(-c2cccc(F)c2)ccc1-c1nccc2cc(S(=O)(=O)Nc3ccncn3)ccc12` [Example 363, 1-(6-(3-FLUOROPHENYL)-2-METHOXYPYRIDIN-3-YL)-N-(PYRIMIDIN-4-YL)ISOQUINOLINE-6-SULFONAMIDE], the IC50 at Nav 1.5 (setting [1]) was greater than 30000 nM; at Nav 1.7, 540 nM.

For the molecule `COc1cc(Oc2ccc(F)cc2)ccc1-c1nccc2cc(S(=O)(=O)Nc3ccncn3)ccc12` [Example 462, 1-(4-(4-FLUOROPHENOXY)-2-METHOXYPHENYL)-N-(PYRIMIDIN-4-YL)ISOQUINOLINE-6-SULFONAMIDE], the IC50 on Nav 1.5 (setting [1]) is greater than 30000 nM; at Nav 1.7 it was 203 nM.

For the molecule `COc1cc(-c2cc(C)cc(F)c2)ccc1-c1nccc2cc(S(=O)(=O)Nc3ccncn3)ccc12` [Example 472, 1-(3′-FLUORO-3-METHOXY-5′-METHYL-[1,1′-BIPHENYL]-4-YL)-N-(PYRIMIDIN-4-YL)ISOQUINOLINE-6-SULFONAMIDE], the values for the half-inhibitory concentration (IC50) at Nav 1.5 (setting [1]) and at Nav 1.7 were greater than 30000 nM and 63 nM, respectively.

Take `COc1cc(C(F)(F)F)ccc1-c1cnnc2cc(S(=O)(=O)Nc3nccs3)ccc12` [Example 259, 4-(2-METHOXY-4-(TRIFLUOROMETHYL)PHENYL)-N-(THIAZOL-2-YL)CINNOLINE-7-SULFONAMIDE]: the results for the IC50 at Nav 1.5 (setting [1]) and on Nav 1.7 were greater than 30000 nM and 320 nM, respectively.

The record behind these values is US9012443B2 (Amgen Inc., priority 2011, dated 2015).
